Assay results reported in patent US11753373B2, “Protease inhibitors as antivirals” (priority 2021, dated 2023).

Assays:
SARS-CoV-2 Omicron [1] = assay: Virus release assay using EpiAirway; type: cell-based; conditions: Severe acute respiratory syndrome coronavirus 2
[2] = type: in vitro ADME, Human; conditions: extraction ratio; for Liver Microsomal Stability (ER) Human: compound at 1 uM, human liver microsomes 0.5 mg/mL
SARS-CoV-2 = assay: Anti-viral in vitro PRNT assay in Vero E6 cells; type: cell-based; conditions: Severe acute respiratory syndrome coronavirus 2, Vero C1008, 72 h; Vero E6 cells, 1000 pfu, 3 days, plaque reduction; read-out: anti-SARS-CoV2 (PRNT) in Vero E6 EC50
[3] = type: in vitro ADME; conditions: extraction ratio, compound at 1 uM; for Liver Microsomal Stability (ER) SD rat: SD rat liver microsomes 0.5 mg/mL; for Liver Microsomal Stability (ER) Beagle dog: beagle dog liver microsomes 0.5 mg/mL; for Liver Microsomal Stability (ER) Mouse: mouse liver microsomes 0.5 mg/mL
in vivo [4] = conditions: female, Balb/c, mouse, po, 40 mg/kg
Procedure: Pharmacokinetics of test compounds was evaluated following an oral administration of a single dose (at 40 mg/kg) to female Balb/c mice.
Procedure: Test compounds were administered to Balb/c mice (n=3 per sex per time point) by a single oral gavage. The target dose level for oral administration was 40 mg/kg. Blood samples were collected at pre-dose, and at 0.083, 0.25, 0.50, 1, 2, 4, 6, 8, and 12 hours post-dose. Concentrations of test compound were determined by an LC-MS/MS. Non-compartmental Pharmacokinetic parameters of test compounds were analyzed using Phoenix WinNonlin 8.3.
Animal Dosing: All animals were fasted overnight through approximately 4 hours post-dose. Tap water was provided to mice ad Libitum. The mice were dosed orally at 10.0 ml/kg. The formulation volume of the test compound administered to each animal was calculated based on the body weight measured on the day of dosing.
Sample Collection and Analysis: Approximately 0.20 mL of blood was collected via orbital sinus vein puncture into EDTA-K2 tubes. Plasma samples were harvested by centrifugation and stored at −80° C. until analysis. The analytical method for test compound involved protein precipitation by adding acetonitrile containing 1% FA and internal standard (A-1-a synthesized in house or Tolbutamide purchased from Sigma), and final analysis by LC-MS/MS. A standard curve was prepared using mouse plasma for the test compound. The calibration curve was linear over a concentration range of 1.0 to 1000 ng/mL.
(§1) Pharmacokinetic and Statistic Analysis: The reported plasma concentrations of test compounds were used to determine pharmacokinetic parameters, using a non-compartmental model for data analysis (Phoenix WinNonlin 8.3). The common pharmacokinetic parameters were calculated, whenever possible, from the plasma concentration-versus-time data. Nominal doses and sampling times were used, except where deviations were noted. […] BQL after Tmax would not participate in calculation of PK parameters.

SARS-CoV-2 Omicron [5] = assay: FRNT assay in Vero E6 cells; type: cell-based; conditions: Severe acute respiratory syndrome coronavirus 2, Vero C1008, 24 h
SARS-CoV-2 Omicron [6] = assay: FRNT assay in A549-hACE2 cells; type: cell-based; conditions: Severe acute respiratory syndrome coronavirus 2, 24 h
in vivo [7] = conditions: female, beagle, dog, po, 40 mg/kg
Procedure: Pharmacokinetics of test compounds was evaluated following an oral administration of a single dose (at 40 mg/kg) to female Beagle dogs.
Procedure: Test compounds were orally administered to beagle dogs (single dose). The target dose level for oral administration was 40 mg/kg. Blood samples were collected at pre-dose, and at 0.083, 0.25, 0.50, 1, 2, 4, 6, 8, and 24 hours post-dose. Concentrations of test compound were determined by an LC-MS/MS. Non-compartmental Pharmacokinetic parameters of test compounds were analyzed using Phoenix WinNonlin 8.3.
Animal Dosing: All animals were fasted ˜17-19 h prior to dosing and fed approximately 4 hours after dosing. […] The dogs were dosed at 10.0 ml/kg. The formulation volume of the test compound administered to each animal was calculated based on the body weight measured on the day of dosing.
Sample Collection and Analysis: Approximately 1 mL of blood was collected by jugular vein puncture into tubes containing EDTA-K2 anticoagulant. Plasma samples were harvested by centrifugation (2000 g for 10 minutes at 4° C. within 2 hours after collection) and stored at −80° C. until analysis. The analytical method for test compound involved protein precipitation by adding acetonitrile containing 1% FA and internal standard (A-1-a synthesized in house or Tolbutamide purchased from Sigma), and final analysis by LC-MS/MS. A standard curve was prepared using dog plasma for the test article. The calibration curve was linear over a concentration range of 1.0 to 1000 ng/mL.
as §1

Question: With `CC(C)C[C@H](NC(=O)c1cc2ccccc2[nH]1)C(=O)N[C@@H](C[C@@H]1CCNC1=O)C(O)S(=O)(=O)[O-].[Na+]` (stereo partly drawn) [Compound A-1-d, sodium (2S)-2-((S)-2-(1H-indole-2-carboxamido)-4-methylpentanamido)-1-hydroxy-3-((S)-2-oxopyrrolidin-3-yl)propane-1-sulfonate] as the compound, how does the EC50 (SARS-CoV-2 Omicron [1]) read?
Answer: Its EC50 is 12 to 41 nM.

Question: And the EC90 (SARS-CoV-2 Omicron [1])?
Answer: The EC90 was 12 to 41 nM.

Question: What about the “Liver Microsomal Stability (ER) Human” value [2] of the same compound?
Answer: The value was 0.08.

Question: What about the EC50 (SARS-CoV-2) of the same compound?
Answer: Its EC50 is 1060 nM.

Question: What about the “Liver Microsomal Stability (ER) SD rat” value [3] of the same compound?
Answer: Its value is 0.12.

Question: And the “Liver Microsomal Stability (ER) Beagle dog” value [3]?
Answer: Its value is 0.04.

Question: And the “Liver Microsomal Stability (ER) Mouse” value [3]?
Answer: Its value is 0.10.

Question: And the AUC0-t (in vivo [4])?
Answer: The AUC0-t was 2620 ng·h/mL.

Question: What about the Cmax (in vivo [4]) of the same compound?
Answer: The Cmax was 1610 ng/mL.

Question: What about the Tmax (in vivo [4]) of the same compound?
Answer: Its Tmax is 0.5 h.

Question: And the half-life (in vivo [4])?
Answer: Its half-life is 0.893 h.

Question: What about the EC50 (SARS-CoV-2 Omicron [5]) of the same compound?
Answer: Its EC50 is 360 nM.

Question: And the EC90 (SARS-CoV-2 Omicron [5])?
Answer: Its EC90 is 410 nM.

Question: And the EC50 (SARS-CoV-2 Omicron [6])?
Answer: Its EC50 is 130 nM.

Question: What about the EC90 (SARS-CoV-2 Omicron [6]) of the same compound?
Answer: Its EC90 is 280 nM.

Question: What about the AUC0-t (in vivo [7]) of the same compound?
Answer: Its AUC0-t is 95900 ng·h/mL.

Question: What about the Cmax (in vivo [7]) of the same compound?
Answer: Its Cmax is 27800 ng/mL.

Question: And the Tmax (in vivo [7])?
Answer: The Tmax was 2 h.

Question: And the bioavailability (in vivo [7])?
Answer: Its bioavailability is over 83%.

Question: What about the half-life (in vivo [7]) of the same compound?
Answer: Its half-life is 2.73 h.

Question: Which results are given for `CC(C)C[C@H](NC(=O)c1cc2ccccc2[nH]1)C(=O)N[C@H](C=O)C[C@@H]1CCNC1=O` [Compound A-1-c, N—((S)-4-methyl-1-oxo-1-(((S)-1-oxo-3-((S)-2-oxopyrrolidin-3-yl)propan-2-yl)amino)pentan-2-yl)-1H-indole-2-carboxamide]?
Answer: Liver Microsomal Stability (ER) Human, at 0.1 uM ([2]; compound at 0.1 uM, human liver microsomes): 0.45(0.1 uM)*; Liver Microsomal Stability (ER) Human [2]: 0.12,; EC50 (SARS-CoV-2): 300 nM; Liver Microsomal Stability (ER) SD rat [3]: 0.05; Liver Microsomal Stability (ER) Beagle dog [3]: 0.09; Liver Microsomal Stability (ER) Monkey ([3]; monkey liver microsomes 0.5 mg/mL): 0.14; Liver Microsomal Stability (ER) Mouse [3]: 0.04; AUC0-t (in vivo [4]): 2170 ng·h/mL; Cmax (in vivo [4]): 734 ng/mL; Tmax (in vivo [4]): 3 h; bioavailability (in vivo [4]): 8%; half-life (in vivo [4]): 1.07 h; AUC0-t (in vivo [7]): 36700 ng·h/mL; Cmax (in vivo [7]): 13800 ng/mL; Tmax (in vivo [7]): 0.833 h; bioavailability (in vivo [7]): 31%; half-life (in vivo [7]): 4.84 h
